Data on four compounds can be found in US11420922B2, “Hydroxylated tropolone inhibitors of nucleotidyl transferases in herpesvirus and Hepatitis B and uses therefor” (Saint Louis University, priority 2015, dated 2022).

SMILES strings stand for the structures. Entries after “also recorded” stand apart in the source; their conditions may differ. Where two headings read alike, the source gives them in different places. Some results are limits rather than exact numbers.

The subject of data set [1] is HSV-1. Nature of the data set: Anti-HSV-1 replication assay in Vero cells, titers by plaque assay. It counts as cell-based, herpes simplex virus 1. Conditions: Human alphaherpesvirus 1, Vero; for log reduction at 5 µM / log reduction at 50 µM / EC50: 24 h; for log reduction at 5 µM: read-out: HSV-1 Log suppression 5 μM; for log reduction at 50 µM: read-out: HSV-1 Log suppression 50 μM; for EC50: read-out: HSV-1 EC50. Here is the method:
Vero cells were maintained in Dulbecco's modified Eagle's medium (DMEM) containing 3% newborn calf serum, 3% bovine growth serum, 2 mM L-glutamine and 100 IU/mL penicillin and 0.1 mg/mL streptomycin (P/S). HSV-1 #6 and HSV-2 #1 are de-identified clinical isolates from the Saint Louis University Hospital. Stocks were prepared after a single passage in cell culture and were titered by standard plaque assay (Knipe and Spang, 1982). Wild-type HSV-2 used in FIG. 3 was laboratory strain 333. […] Virus stocks were grown and titered on Vero cells (Morrison and Knipe, 1996).
(§1) Compounds to be screened were diluted in PBS supplemented to contain 2% newborn calf serum and 1% glutamine, and added in 100 μL volume to confluent cell monolayers in 24-well cluster plates. Immediately thereafter HSV-1 and HSV-2, diluted in the supplemented PBS medium, were added to the wells in 50 μl volume such that the final concentration of compound was 50 μM and 5 μM and the multiplicity of infection was 0.1. The plates were incubated at 37° C. for 1 hour and then virus-containing inoculum was removed and the wells were washed once in PBS. Compounds, diluted to 50 μM and 5 μM in DMEM supplemented to contain 2% newborn calf serum and 1% each penicillin/streptomycin, were added at 0.5 mL/well. Plates were incubated at 37° C. an additional 23 hr, and then the plates were visually inspected through a phase contrast microscope for cytopathic effect, and for toxic effect. […] The entire contents of each well were collected by scraping. Samples were frozen at −80° C., and then subsequently thawed, sonicated, and infectious virus titer was determined by standard plaque assay on Vero cell monolayers. Because the compounds were dissolved at 10 mM in 100% DMSO, equivalent dilutions of DMSO were added to additional wells as a control for effects of the diluent. Each experiment was repeated once. EC50 values were determined as above except that serial dilutions of the compound to be tested were prepared starting at 50 μM. The inhibitory values were calculated by non-linear curve-fitting in GraphPad Prism.

The subject of data set [2] is HSV-2. Nature of the data set: Anti-HSV-2 replication assay in Vero cells, titers by plaque assay. In kind it is cell-based, herpes simplex virus 2. The settings on record: for log reduction at 5 µM / log reduction at 50 µM / EC50: Human alphaherpesvirus 2, Vero, 24 h; for log reduction at 5 µM: read-out: HSV-2 Log suppression 5 μM; for log reduction at 50 µM: read-out: HSV-2 Log suppression 50 μM; for inhibition of wild-type HSV-2, in words: laboratory strain, 24 hr, FIG. 4; for EC50: read-out: HSV-2 EC50.

The subject of data set [3] is TK-deficient mutant of HSV-2 strain 333, ΔTK-. As to the kind of experiment: Replication of acyclovir-resistant TK-deficient HSV-2 mutant in Vero cells. Conditions: 5 μM, 24 hr, FIG. 4. It counts as cell-based, herpes simplex virus 2. The method, then: FIGS. 4A & 4B. Sensitivity of thymidine kinase-deficient HSV-2 to αHT compounds. […] Duplicate cultures were collected 24 hours post-infection and infectious virus titers were determined by plaque assay. Titers in compound-treated samples were subtracted from DMSO-treated samples. Values are the averages±one standard error of the mean. α-Hydroxytropolones inhibit an ACV-resistant mutant of HSV-2. […] Log10 suppression was determined relative to the diluent control. Data are the averages of data from duplicate samples±ranges from one of two independent experiments at each concentration.
Vero cells were maintained in Dulbecco's modified Eagle's medium (DMEM) containing 3% newborn calf serum, 3% bovine growth serum, 2 mM L-glutamine and 100 IU/mL penicillin and 0.1 mg/mL streptomycin (P/S). HSV-1 #6 and HSV-2 #1 are de-identified clinical isolates from the Saint Louis University Hospital. Stocks were prepared after a single passage in cell culture and were titered by standard plaque assay (Knipe and Spang, 1982). Wild-type HSV-2 used in FIG. 3 was laboratory strain 333. The TK-deficient mutant of HSV-2 strain 333, ΔTK-, contains a 180-bp KpnI-KpnI deletion in the UL23 open reading frame that abrogates TK activity (McDermott, et al, 1984). ΔTK- was the generous gift of Jim Smiley. Virus stocks were grown and titered on Vero cells (Morrison and Knipe, 1996).
HSV TK-deficient mutants are therefore insensitive to ACV. […] Vero cells were infected with a laboratory strain of HSV-2 and an engineered TK-deficient mutant of the same strain.

The nature of data set [4]: Quantitative Vero cell toxicity (MTT). It counts as cell-based. The settings on record: African green monkey, Vero cells. Here is the method:
(§2) Qualitative assessments of cytotoxicity were done visually by inspecting the cells in the primary screening assays. For the quantitative assays, cells were plated in 96-well plates at 1.0×10^4 per well. The next day the compounds were added at 0.78 to 100 μM in a final concentration of 1% (v/v) DMSO, and the cells were incubated for 24 hours under conditions identical to those employed for the viral replication inhibition assays. Mitochondrial toxicity was measured by incubating the cells with 0.25 mg/mL thiazolyl blue tetrazolium bromide (MTT, Sigma Aldrich Chemical Co.), the cultures were incubated for 60 min, metabolites were solubilized in acidic isopropanol, and absorbance was read at 570 nm. CC50 values were calculated by non-linear curve fitting using GraphPad Prism.
Quantitative toxicity measurements were conducted for all compounds that suppressed HSV replication by >2 log10 at 5 μM plus a number of compounds with lesser inhibitory activity for comparison. Toxicity was assessed by […]. Cells were plated in 96-well plates at 1.0×10^4 per well. The next day compound was added in concentrations ranging from 0.78 to 100 μM in a final concentration of 1% (v/v) DMSO. The cells were incubated for 24 h under conditions identical to those employed for the viral replication inhibition assays, and then mitochondrial activity was measured with the MTT assay (Sigma Aldrich) according to the manufacturer's instructions. Percent viability was determined for each compound concentration from the […], and then 50% cytotoxic concentrations (CC50) values were calculated by non-linear curve fitting using GraphPad Prism. Consistent with the subjective assessments of toxicity, all compounds selected for quantitative toxicity assessment had CC50 values≥50 μM under these conditions (Table 1).

The test system of a further data set is HSV. Nature of the data set: Anti-HSV SAR summary, HSV type not separated. The settings on record: grouped by activity at 50, 5 and 0.5 μM. In kind it is cell-based, herpes simplex virus. The method, then:
as §1
A series of over 20 synthetic αHTs were synthesized and tested to both confirm the initial SAR, and to provide leads for further optimization pursuits (FIG. 5). […] Specifically, biphenyl-containing molecules #118 and 115 inhibit HSV replication by up to 4 log10 at 200 nM. The increased potency over close analogs #111 and 113 confirmed the importance of added lipophilicity.

Data set [5] in a line: Cytotoxicity reported with the HBV assay (Table 4). In kind it is cell-based. The settings on record: human, hepatoma cells; read-out: CC50 (HBV assay table). Here is the method: as §2
Data set [6] relates to HSV-1. The settings on record: 5 μM or less; cited from earlier work.
The subject of data set [7] is HSV-2. Conditions: 5 μM or less; cited from earlier work.
For another data set, the system named is HBV. As to the kind of experiment: HBV replication assay in HepDES19 cells. The settings on record: Hepatitis B virus; HepDES19 cells; read-out: EC50 (HBV assay). In kind it is cell-based. The method, then:
HBV replication assay. Inhibition of HBV replication was measured in HepDES19 cells as previously described (Cai, et al., 2014). Cells were seeded into 6-well plates and incubated in DMEM/F12, 10% fetal bovine serum (FBS), 1% penicillin/streptomycin (P/S) with 1 μg/ml tetracycline. Tetracycline was withdrawn after 24 hours. The test compound was applied to duplicate wells 48 hours later in medium containing a final DMSO concentration of 1%, and medium containing the compound was refreshed daily for the following two days. Cells were harvested and non-encapsidated nucleic acids were digested with micrococcal nuclease (New England Biolabs). HBV DNA was purified from capsids using QIAamp Cador Pathogen Mini Kit (Qiagen) with proteinase K incubation overnight at 37° C. TaqMan PCR was performed for 40 cycles at an annealing temperature of 60° C. Primers and probe (IDT Inc.) for the plus-polarity strand were: 5′[…]3′ (SEQ ID NO: 1); 5′[…]3′ (SEQ ID NO: 2); 5′/56-FAM/[…]/ZEN/[…]/3IABkFQ (SEQ ID NO: 3). Primers and probe for the minus-polarity strand were: 5′[…]3′ (SEQ ID NO: 4); 5′[…]3′ (SEQ ID NO: 5); 5′/56-FAM/[…]/ZEN/[…]/3IABkFQ (SEQ ID NO: 6).

Data set [8] can be described thus: Mouse liver microsome assay. In kind it is in vitro ADME. Conditions: 1 μM in mouse liver microsomes. The method, then: Microsomal incubations are run at a final P450 concentration of 0.25 μM. The microsomal mixture is composed of 0.1M potassium phosphate containing 3.3 mM MgCl and 1 μM compound (final concentration). The mixture is prewarmed for 5 min at 37° C. To initiate the reaction a 12 mM stock of NAPDH (1.2 mM, final concentration) is added to the warmed microsomal mixture and aliquots are removed at 0, 5, 10, 20 and 30 min. Samples are quenched with ice cold acetonitrile containing internal standard and either 1.8 mM EDTA or EGTA (final concentration). Samples are vortexed and spun down at 3200 rpm for 5 min. The supernant is transferred to 96-deep well plates and run on LC/MS/MS.
(In general: Microsomes from liver hold many membrane-bound enzymes, among them those of drug oxidation.)

[9] abbreviates: 5 μM, moi 0.1, 24 h, vs DMSO, +/− are qualitative, key not given.
Setting [10] is: 50 μM, moi 0.1, 24 h, vs DMSO, +/−/T are qualitative, key not given.

As for `Nc1nc2c(ncn2COCCO)c(=O)[nH]1` [ACV, Acyclovir, reference compound], the log reduction at 5 µM turned out to be 4.22 with HSV-1 [1] (setting [9]) and 3.6 with HSV-2 [2] (setting [9]). Besides, the log reduction at 50 µM is 5.39 in the data set with HSV-1 [1] (setting [10]) and 4.73 in the data set with HSV-2 [2] (setting [10]). Moreover, the “inhibition of the TK-mutant strain, in words” value in data set [3] is on record as “little effect”. The compound also yielded a CC50 at 24 h in data set [4] above 100 µM.
With `Cc1cc(O)c(=O)c(O)cc1C(=O)c1ccccc1` [Compound 111], the values for the log reduction at 5 µM with HSV-1 [1] and in the data set with HSV-2 [2] were 4.28 and 3.21, respectively. The “anti-HSV SAR group, in words” value in the data set on HSV is “fully inhibitory at 5 μM”. The CC50 at 24 h is above 50 µM in [4] and 31 µM in [5]. The “suppression of HSV-1 replication in cell culture, in words” value in the data set on HSV-1 [6] was “strongly suppress”. Also, the “suppression of HSV-2 replication in cell culture, in words” value in the data set with HSV-2 [7] is on record as “strongly suppress”.
Consider `COC(=O)c1c(C)cc(O)c(=O)c(O)c1O` [Compound 196], for which the EC50 in the data set with HSV-1 [1] stood at 0.1 µM; with HSV-2 [2], 2.57 µM; with HBV it was 6.5 µM. The log reduction at 5 µM amounted to 4.17 with HSV-1 [1] and 4.05 in the data set on HSV-2 [2]. Besides, the log reduction at 50 µM is 3.99 in the data set with HSV-1 [1] and 4.56 in the data set on HSV-2 [2]. Moreover, in the data set on HSV-1 [1] (read-out: HSV-1 Log suppression 1.5 μM), the log reduction at 1.5 µM was 3.82. Besides, in the data set with HSV-2 [2] (5 μM), the “inhibition of wild-type HSV-2, in words” value is on record as “efficiently inhibited”. Further, the “inhibition of the TK-mutant strain, in words” value in [3] is reported as “efficiently inhibited”. Moreover, the CC50 at 24 h in data set [4] was above 100 µM; in data set [5], 13 µM.
`Cc1cc(O)c(=O)c(O)cc1-c1ccc(-c2ccccc2)cc1` [Compound 115]: in the data set on HSV-1 [1], the EC50 amounted to 0.13 µM, the log reduction at 5 µM was 4.26 and the log reduction at 50 µM turned out to be 4.14. In addition, in the data set on HSV-2 [2] (5 μM), the “inhibition of wild-type HSV-2, in words” value is on record as “efficiently inhibited”. Also, in the data set on HSV-2 [2], the EC50 turned out to be 0.13 µM, the log reduction at 5 µM was determined as 4.52 and the log reduction at 50 µM came out at 5.11. Further, the “inhibition of the TK-mutant strain, in words” value in data set [3] was “efficiently inhibited”. Also, the “anti-HSV SAR group, in words” value with HSV is given as “highly inhibitory at much lower concentrations; also recorded: fully inhibitory at 0.5 μM”. Moreover, in data set [4], the CC50 at 24 h is above 100 µM. Also, the Non-P450 turn-over entry in [8] is recorded as “No”. For the same compound, the half-life at 1 μM in [8] (read-out: t ½) stood at 18 min. Besides, the ER in data set [8] (extraction ratio) is 0.76. The CLint scaled at 1 μM in data set [8] (mouse, liver microsomes) turned out to be 285 mL/min/kg. In [8] (mouse, liver microsomes, read-out: CL ′hep), the predicted hepatic clearance at 1 μM was 68 mL/min/kg.

In general, CC50 refers to the concentration that lowers cell viability or growth by half. As usually defined, the EC50 is the concentration needed to bring the measured effect to its halfway point. Usually CLint scaled stands for the rate of metabolic loss divided by the concentration.
